Consider 4 compounds from patent publication US20190201419A1, “COMPOUND AND METHOD FOR THE TREATMENT AND DIAGNOSIS OF NEURODEGENERATIVE CONDITIONS” (Swansea University, priority 2013, published 2019).

One data set concerns the target T1, Fxr (Homo sapiens, UniProt Q96RI1).
T1 construct: expressed in transfected cells; host or cells: SN4741 mouse neuronal cell line
T1 sequence (Q96RI1 1-486): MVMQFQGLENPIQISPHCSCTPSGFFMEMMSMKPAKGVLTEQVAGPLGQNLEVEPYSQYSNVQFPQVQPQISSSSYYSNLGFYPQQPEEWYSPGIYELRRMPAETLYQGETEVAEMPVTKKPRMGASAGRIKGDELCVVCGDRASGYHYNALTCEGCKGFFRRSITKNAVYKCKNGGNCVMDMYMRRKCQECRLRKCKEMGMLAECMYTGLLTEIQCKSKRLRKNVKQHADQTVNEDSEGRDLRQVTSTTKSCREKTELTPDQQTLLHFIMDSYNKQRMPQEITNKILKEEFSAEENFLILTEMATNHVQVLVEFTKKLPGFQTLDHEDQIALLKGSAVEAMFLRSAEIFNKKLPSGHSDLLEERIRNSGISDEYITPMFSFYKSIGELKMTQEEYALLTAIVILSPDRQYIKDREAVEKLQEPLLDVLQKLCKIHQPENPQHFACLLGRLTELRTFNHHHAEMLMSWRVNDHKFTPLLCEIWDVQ
The data set can be described thus: Fxr luciferase reporter assay in SN4741 neural cells. Type of data set: cell-based, mouse. Conditions: 24 h. On the procedure:
(§1) Luciferase Reporter Assay. The ability of oxysterols and their acidic metabolites to activate several nuclear receptors i.e. Lxrα and β, Fxr, Vdr, Nurr1 was tested in luciferase assays. Transient transfection studies were performed in the mouse neuronal cell line SN4741. This cell line was selected as the oxysterols and acidic metabolites tested were initially identified in CSF. Cells were plated in 24-well plates ([…] cells/well) 24 hr before transfection and transfected with 1 μg of plasmid DNA/well complexed with 2 μL of Lipofectarnine 2000 (Invitrogen), Cells were transfected with 400 ng of a Lxr-, Fxr-, Vdr- or Nurr1-responsive luciferase reporter construct, and 200 ng of Lxrα, Lxrβ, Fxr, Vdr or Nurr1. A reporter gene expressing the Renilla luciferase (pRL-TK, Promega) was co-transfected in all experiments as an internal control for normalization of transfection efficiency. After a 12 h incubation, the lipid/DNA mix was replaced with fresh 2.5% serum medium containing vehicle or appropriate ligand (10 μM), as specified in each experiment. […] Luciferase activities were assayed 24 h later using the Dual-Luciferase Reporter Assay System (Promega), following the manufacturer's protocol.

A further data set has as its target T2, Lxrα (Homo sapiens, UniProt Q13133).
T2 construct: expressed in transfected cells; host or cells: SN4741 mouse neuronal cell line
T2 sequence (Q13133 1-447): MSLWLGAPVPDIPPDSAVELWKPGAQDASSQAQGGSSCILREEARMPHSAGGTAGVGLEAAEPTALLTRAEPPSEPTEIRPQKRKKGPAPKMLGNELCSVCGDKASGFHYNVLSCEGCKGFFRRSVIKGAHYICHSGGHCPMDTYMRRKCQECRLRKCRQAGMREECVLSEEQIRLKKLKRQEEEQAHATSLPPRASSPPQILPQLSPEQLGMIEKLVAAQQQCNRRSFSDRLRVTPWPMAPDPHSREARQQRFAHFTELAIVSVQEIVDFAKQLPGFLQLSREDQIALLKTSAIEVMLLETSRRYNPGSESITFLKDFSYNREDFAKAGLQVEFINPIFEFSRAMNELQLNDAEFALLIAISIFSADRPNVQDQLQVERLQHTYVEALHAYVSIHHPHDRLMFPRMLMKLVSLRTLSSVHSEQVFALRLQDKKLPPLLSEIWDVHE
The data set can be described thus: Lxrα luciferase reporter assay in SN4741 neural cells. Type of data set: cell-based, mouse. The source says:
(§2) Luciferase Reporter Assay.

The next data set has as its target T3, Lxrβ (Homo sapiens, UniProt P55055).
T3 construct: expressed in transfected cells; host or cells: SN4741 mouse neuronal cell line
T3 sequence (P55055 1-460): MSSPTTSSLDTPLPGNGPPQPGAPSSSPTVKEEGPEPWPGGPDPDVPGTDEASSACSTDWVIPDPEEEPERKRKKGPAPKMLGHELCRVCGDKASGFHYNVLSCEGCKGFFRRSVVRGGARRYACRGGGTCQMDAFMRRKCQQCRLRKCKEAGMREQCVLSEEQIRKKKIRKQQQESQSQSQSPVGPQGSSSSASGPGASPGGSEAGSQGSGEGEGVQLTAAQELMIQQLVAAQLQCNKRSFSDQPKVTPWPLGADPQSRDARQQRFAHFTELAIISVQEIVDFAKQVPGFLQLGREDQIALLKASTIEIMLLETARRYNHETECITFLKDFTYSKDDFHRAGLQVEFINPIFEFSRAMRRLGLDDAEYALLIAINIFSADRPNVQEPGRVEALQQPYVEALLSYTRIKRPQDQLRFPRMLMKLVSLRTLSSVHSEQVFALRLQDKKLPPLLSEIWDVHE
The data set can be described thus: Lxrβ luciferase reporter assay in SN4741 neural cells. The following applies: SN4741 cells, 10 μM, 24 h. Type of data set: cell-based, mouse.
Excerpt: as §2
In general terms: A reporter such as luciferase makes a cellular process visible.

A further data set concerns Islet-1. The data set can be described thus: Islet-1 expression in Tg[Isl1:GFP] zebrafish embryos. The following applies: 10 μM, embryos 48 hpf. Type of data set: in vivo. As to the method:
Quantitative PCR, Total RNA was extracted from SN4741. cells and zebrafish treated with the compounds of interest using the RNeasy Mini Kit (Qiagen), 1 μg was treated with RQ1 RNase-free DNase (Promega) and reverse transcribed using SuperScript II Reverse Transcriptase (invitrogen) and random primers (invitrogen) (RT+reaction). Parallel reactions without reverse transcriptase enzyme were done as a control (RT−reaction), and Sybergreen real-time quantitative PCR assays were performed. Expression levels were obtained by normalization with the Value of the housekeeping gene encoding actin obtained for every sample in parallel assays.
Zebrafish Strain and Maintenance Zebrafish were raised on a 14/10 h day/night cycle and were kept at 28.5 ° C. Islet-1:GFP transgenic embryos were obtained via natural spawning and staged in hours or days post fertilization (hpf and dpt) according to Kimmel et al). Embryos older than 24 hpf were treated with 0.03% phenylthiourea (PTU) to inhibit pigmentation. MO injections were performed using splice site specific zebrafish lxi MO MO injected embryos were immediately dechorionated and transferred to a 96 well plate and exposed to dimethyl sulfoxide (DMSO) treated or ligand treated medium. Compound Exposure. Islet-1:GFP embryos were collected by natural mating and immediately (at 1 cell stage) dechorionated and transferred to a 96 well plate. Each of the compounds tested were obtained as 10 mM stock and diluted in embryo medium to a final concentration of 10 μM, and 200 μL was added to each well. DMSO or propan-2-ol treated embryo medium was taken as control. Ligand solutions were replaced every 12 h with fresh ligand solution prepared in PTU treated embryo medium. Embryos were collected at 48 hpf, fixed for 4 h at room temperature with 4% paraformaldehyde and then washed and kept in PBST. Immunocytochemistry was performed using an anti-GFP antibody and fluorescence was viewed and photographed using a Zeiss Axioplan compound microscope and a Zeiss Axiocam digital camera.

Data set [1] deals with Islet1+ oculomotor neurons. The data set can be described thus: Islet1+ cells in mouse E11.5 brain primary cultures. It counts as cell-based. On the procedure:
(§3) Primary Brain Cultures. Brains from E11.5 mice were manually dissected, plated on poly-D-lysine (150,000 cells/cm^2) and grown in serum-free N2 media consisting of 1:1 mixture of F12 and DMEM with 10 ng/mL insulin, 100 μg/mL apo-transferrin, 100 μM putrescine, 20 nM progesterone, 30 nM selenium, 6 mg/mL glucose, and 1 mg/mL BSA. Cells were treated for 3 days in vitro (DIV) with the compounds of interest, fixed with 4% PFA and processed for staining using appropriate antibodies.
(§4) Antibodies and Detection Procedures. Cells were fixed in 4% PFA, washed in PBS and blocked in 5% normal goat serum/PBS for 1 h at room temperature. Primary antibodies were diluted in PBS (pH 7.4), 0.3% Triton X-100, 1% BSA and incubations were carried out overnight at +4° C. or at room temperature for 2 h. The antibodies used were anti-:BrdU (1:400; Abeam), Islet-1 (1:100: Developmental Studies Hybridoma Bank), cleaved caspase-3 (Aspt 75) (1:100; Cell Signaling Technology), tyrosine hydroxylase (TH; 1:1000; Pel-Freeze) GABA (1:1,000; Sigma), Bm3a (1:250; Millipore), Nkx6.1 (1:200; Novus Biologicals), choline acetyltransferase (ChAT; 1:500; Millipore) and appropriate secondary antibodies (Jackson ImmunoResearch or Alexa). Cells positive for the corresponding marker were counted directly at the microscope at a magnification of 20×. Cells were counted in every well, in eight consecutive fields (going from one side of the well to the other, passing through the center), in three different wells per experiment and in three different experiments per condition. Random pictures of the wells were taken for every condition to document the result, and representative pictures were subsequently selected to represent the quantitative data. Photos were acquired with a Zeiss Axioplan microscope and a Hamamatsu camera C4742-95 using the Openlab software.

The test system of the next data set is active caspase 3+ cells. The data set can be described thus: Active caspase 3+ cells in mouse E11.5 brain primary cultures. Type of data set: cell-based. The following applies: wt cultures; 3β,7α-diHCA, 3βH,7O-CA, 25-HC at 10 μM; toxic acids at low concentrations. On the procedure: as §3, §4
Data set [2] in a line: LC-ESI-MSn of cholestenoic acids in mouse brain. Conditions: 23 month old male Cyp7b1−/− mice. From the text:
Animals. Lxra,−/−β−/− mouse cell cultures were from the colony at the Department of Biosciences and Nutrition at Novum, Karolinska Institutet. Male and female wild-type and Lxrα−/−β−/− mice were generated as previously described (Alberti et al. J. Clin. Invest 2001:107(5), 565-73). Mice were back crossed onto a C57BL/6 background for 10 generations. Male Cyp7b1−/− mouse brain and plasma were from animals generated at the University of Edinburgh. Male mice homozygous for targeted disruption of the Cyp7b1 gene congenic on the C57BL/6 genetic background (>15 generations backcrossed to C57BL/6) and wild-type littermate controls were generated from Cyp7b1−/+ crosses. Male cyp27a1−/− mouse tissue and plasma was purchased from The Jackson Laboratory (ME, USA) strain B6.129-Cyp27a1^tm1Elt/J. The Cyp27a1−/− colony was backcrossed to C57BL/6J inbred mice for approximately 12 generations by the donating investigator prior to sending to The Jackson Laboratory Repository. Upon arrival, mice were bred to C57BL/6J inbred mice for at least one generation to establish the colony. Wild type animals from the colony were used as controls.
Extraction of Sterols. […]
Charge Tagging of Sterols. The sterols were charge-tagged with the GP-hydrazine to enhance their response when analysed by LC-ESI-MS and tandem mass spectrometry (MS^n).

Data set [3] has as its system Nur-related factor 1 (Nurr1)/retinoid X receptor (Rxr) heterodimers. The data set can be described thus: DR5 element luciferase reporter assay (Nurr1/Rxr) in SN4741 neural cells. Conditions: 10 μM. It counts as cell-based, mouse.
Excerpt: as §2

A further data set addresses T4, Vdr (Homo sapiens, UniProt P11473).
T4 sequence (P11473 1-427): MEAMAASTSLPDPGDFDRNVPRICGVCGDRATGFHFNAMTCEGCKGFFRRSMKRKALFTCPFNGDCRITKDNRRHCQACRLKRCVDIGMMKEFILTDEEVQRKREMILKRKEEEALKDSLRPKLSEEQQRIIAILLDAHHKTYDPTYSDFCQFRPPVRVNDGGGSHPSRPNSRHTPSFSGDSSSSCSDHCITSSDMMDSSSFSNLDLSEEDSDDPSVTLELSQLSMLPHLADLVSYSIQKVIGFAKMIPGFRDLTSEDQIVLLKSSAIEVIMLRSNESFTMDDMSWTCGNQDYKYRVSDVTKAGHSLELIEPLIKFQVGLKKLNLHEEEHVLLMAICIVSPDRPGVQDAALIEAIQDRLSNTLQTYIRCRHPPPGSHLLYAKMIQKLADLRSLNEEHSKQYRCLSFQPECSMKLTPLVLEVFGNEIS
The data set can be described thus: Vdr luciferase reporter assay in SN4741 neural cells. Type of data set: cell-based, mouse. The following applies: 10 μM. On the procedure:
as §1

Bounds are passed on as bounds.

Consider `C[C@H](CCC(=O)O)[C@H]1CC[C@H]2[C@@H]3CC=C4C[C@@H](O)CC[C@]4(C)[C@H]3CC[C@]12C` [3βH-Δ^5-BA, 3β-hydroxychol-5-en-24-oic acid], for which, on Fxr, the “Fxr activation, luciferase reporter” value is given as “also activated Fxr, but was less potent than CDCA”.
Turning to `C[C@H](CCCC(C)(C)O)[C@H]1CC[C@H]2[C@@H]3CC=C4C[C@@H](O)CC[C@]4(C)[C@H]3CC[C@]12C` [25-HC, cholest-5-ene-3β,25-diol], the “Lxr luciferase activity with addition of the Lxr antagonist GGPP” value on Lxrα (10 μM metabolite + 10 μM GGPP) is “similarly blocked”. Moreover, the “Lxrα activation, luciferase activity (fold activation)” value at Lxrα (10 μM, 24 h) is on record as “activate Lxr”. Moreover, at Lxrβ, the “Lxrβ activation, luciferase activity (fold activation)” value is given as “activate Lxr”. In the data set on Islet-1, the Islet-GFP expression result was “induced a modest increase in the levels of islet-1”. Further, the “Effect on Islet1+ cells in Lxrα−/−β−/− cultures” value in data set [1] (cultures from Lxrα−/−β−/− mice) is reported as “blocked in cultures from Lxrα−/−β−/− animals”. The “Number of Islet1+ cells” value in data set [1] (wild type cultures) is reported as “increase the number of Islet1+ oculomotor cells”. The “Effect on Islet1+ cells with Lxr antagonist GGPP” value in data set [1] (wt cultures, 10 μM GGPP) is reported as “inhibited by the Lxr antagonist GGPP”. Further, the “Number of active caspase-3+ cells” value in the data set with active caspase 3+ cells is listed as “reduced the number of active caspase-3+ cells”. The “Level in Cyp7b1−/− mouse brain” value in data set [2] was over 2 ng/mg.
As for `CC1=C(/C=C/C(C)=C\C=C\C(C)=C\C(=O)O)C(C)(C)CCC1` [9-cis-RA, 9-cis-retinoic acid], the “DR5 (Nurr1/Rxr) luciferase reporter activation” value in [3] was “activated this reporter”.
Take `C[C@H](CCC(=O)O)[C@H]1CC[C@H]2[C@@H]3CC[C@@H]4C[C@H](O)CC[C@]4(C)[C@H]3CC[C@]12C` [LCA, lithocholic acid]: the “Vdr activation, luciferase reporter” value on Vdr was “activated a vitamin D receptor (Vdr) luciferase reporter”.
